Reference: PubChem BioAssay (NCI)
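Exposure lasted 48 hours, with cells grown in 96-well plates and compounds tested at five concentrations. The concentration for full growth arrest is given as TGI.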

Legend:
Experiment in all cases: NCI-60 cell line screen, 48 h
A498 renal = tested on: A498 renal
A549 NSCLC = tested on: A549 NSCLC
ACHN renal = tested on: ACHN renal
BT-549 breast = tested on: BT-549 breast
CAKI-1 renal = tested on: CAKI-1 renal
CCRF-CEM leukemia = tested on: CCRF-CEM leukemia
COLO 205 colon = tested on: COLO 205 colon
DU-145 prostate = tested on: DU-145 prostate
EKVX NSCLC = tested on: EKVX NSCLC
HCT-116 colon = tested on: HCT-116 colon
HCT-15 colon = tested on: HCT-15 colon
HL-60(TB) leukemia = tested on: HL-60(TB) leukemia
HOP-62 NSCLC = tested on: HOP-62 NSCLC
HS 578T breast = tested on: HS 578T breast
HT29 colon = tested on: HT29 colon
IGROV1 ovarian = tested on: IGROV1 ovarian
K-562 leukemia = tested on: K-562 leukemia
KM12 colon = tested on: KM12 colon
LOX IMVI melanoma = tested on: LOX IMVI melanoma
M14 melanoma = tested on: M14 melanoma
MALME-3M melanoma = tested on: MALME-3M melanoma
MCF7 breast = tested on: MCF7 breast
MDA-MB-231 breast = tested on: MDA-MB-231 breast
MDA-MB-435 = tested on: MDA-MB-435
MDA-N = tested on: MDA-N
NCI-H23 lung = tested on: NCI-H23 lung
NCI-H460 lung = tested on: NCI-H460 lung
NCI-H522 lung = tested on: NCI-H522 lung
NCI/ADR-RES ovarian = tested on: NCI/ADR-RES ovarian
OVCAR-3 ovarian = tested on: OVCAR-3 ovarian
OVCAR-5 ovarian = tested on: OVCAR-5 ovarian
OVCAR-8 ovarian = tested on: OVCAR-8 ovarian
PC-3 prostate = tested on: PC-3 prostate
RXF 393 renal = tested on: RXF 393 renal
SF-268 CNS = tested on: SF-268 CNS
SF-295 CNS = tested on: SF-295 CNS
SF-539 CNS = tested on: SF-539 CNS
SK-MEL-2 melanoma = tested on: SK-MEL-2 melanoma
SK-MEL-28 melanoma = tested on: SK-MEL-28 melanoma
SK-MEL-5 melanoma = tested on: SK-MEL-5 melanoma
SK-OV-3 ovarian = tested on: SK-OV-3 ovarian
SN12C renal = tested on: SN12C renal
SNB-19 CNS = tested on: SNB-19 CNS
SNB-75 CNS = tested on: SNB-75 CNS
SR leukemia = tested on: SR leukemia
SW-620 colon = tested on: SW-620 colon
T-47D breast = tested on: T-47D breast
TK-10 renal = tested on: TK-10 renal
U251 CNS = tested on: U251 CNS
UACC-257 melanoma = tested on: UACC-257 melanoma
UACC-62 melanoma = tested on: UACC-62 melanoma
UO-31 renal = tested on: UO-31 renal

## COc1ccc(Oc2nc(C#CC(C)(C)O)nc(Oc3ccc(OC)cc3)n2)cc1
A498 renal
  TGI: 31.6 µM
A549 NSCLC
  TGI: 28.4 µM
ACHN renal
  TGI: 3.13 µM
BT-549 breast
  TGI: 31.1 µM
CAKI-1 renal
  TGI: 12.5 µM
CCRF-CEM leukemia
  TGI: 4.36 µM
COLO 205 colon
  TGI: 16.9 µM
DU-145 prostate
  TGI: 7.16 µM
EKVX NSCLC
  TGI: 30.7 µM
HCT-116 colon
  TGI: > 100 µM
HCT-15 colon
  TGI: 2.95 µM
HL-60(TB) leukemia
  TGI: 3.52 µM
HOP-62 NSCLC
  TGI: 62.1 µM
HS 578T breast
  TGI: 82.7 µM
HT29 colon
  TGI: 10.8 µM
IGROV1 ovarian
  TGI: 18.9 µM
K-562 leukemia
  TGI: > 100 µM
KM12 colon
  TGI: 29.2 µM
LOX IMVI melanoma
  TGI: 3 µM
M14 melanoma
  TGI: 4.24 µM
MALME-3M melanoma
  TGI: 34.6 µM
MCF7 breast
  TGI: 3.15 µM
MDA-MB-231 breast
  TGI: 9.93 µM
MDA-MB-435
  TGI: 17 µM
MDA-N
  TGI: 21.6 µM
NCI-H23 lung
  TGI: 21.8 µM
NCI-H460 lung
  TGI: 37.3 µM
NCI-H522 lung
  TGI: 9.36 µM
NCI/ADR-RES ovarian
  TGI: 46.8 µM
OVCAR-3 ovarian
  TGI: 4.58 µM
OVCAR-5 ovarian
  TGI: 16.6 µM
OVCAR-8 ovarian
  TGI: 13.7 µM
PC-3 prostate
  TGI: 7.69 µM
RXF 393 renal
  TGI: 2.85 µM
SF-268 CNS
  TGI: 28.5 µM
SF-295 CNS
  TGI: 31.2 µM
SF-539 CNS
  TGI: 22.5 µM
SK-MEL-2 melanoma
  TGI: 22.8 µM
SK-MEL-28 melanoma
  TGI: 18.9 µM
SK-MEL-5 melanoma
  TGI: 27.8 µM
SK-OV-3 ovarian
  TGI: 36 µM
SN12C renal
  TGI: 28.1 µM
SNB-19 CNS
  TGI: 41 µM
SNB-75 CNS
  TGI: 31.3 µM
SR leukemia
  TGI: 3.79 µM
SW-620 colon
  TGI: 3.47 µM
T-47D breast
  TGI: > 100 µM
TK-10 renal
  TGI: 25.5 µM
U251 CNS
  TGI: 15.6 µM
UACC-257 melanoma
  TGI: 38.2 µM
UACC-62 melanoma
  TGI: 25 µM
UO-31 renal
  TGI: 2.88 µM
